15 molecules from patent publication US20240101528A1, “SUBSTITUTED PYRAZOLO PIPERIDINE CARBOXYLIC ACIDS” (BAYER AKTIENGESELLSCHAFT, priority 2020, published 2024) can be followed below.

For this experiment, the target named is T1, recombinant guanylate cyclase reporter cell line (Rattus norvegicus, UniProt P20595).
T1 construct: expressed in transfected cells
T1 sequence (P20595 1-619): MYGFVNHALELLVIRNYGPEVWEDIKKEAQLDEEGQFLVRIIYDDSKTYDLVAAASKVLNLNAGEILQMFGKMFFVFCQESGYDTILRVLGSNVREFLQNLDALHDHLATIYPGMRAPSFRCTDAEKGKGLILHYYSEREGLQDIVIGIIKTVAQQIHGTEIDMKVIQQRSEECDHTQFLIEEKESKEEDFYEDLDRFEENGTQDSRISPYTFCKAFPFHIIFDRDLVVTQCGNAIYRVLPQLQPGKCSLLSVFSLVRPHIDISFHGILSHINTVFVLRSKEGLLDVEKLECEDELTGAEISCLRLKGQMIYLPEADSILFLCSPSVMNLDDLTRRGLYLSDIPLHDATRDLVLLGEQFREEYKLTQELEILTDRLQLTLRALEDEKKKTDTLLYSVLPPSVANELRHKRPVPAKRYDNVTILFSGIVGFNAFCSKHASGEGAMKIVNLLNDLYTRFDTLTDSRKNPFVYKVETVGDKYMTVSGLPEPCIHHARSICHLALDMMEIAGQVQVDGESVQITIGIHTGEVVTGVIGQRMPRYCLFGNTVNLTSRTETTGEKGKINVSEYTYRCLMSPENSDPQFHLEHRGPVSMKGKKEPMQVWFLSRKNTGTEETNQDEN
T1 sequence (P19686 1-690 partner): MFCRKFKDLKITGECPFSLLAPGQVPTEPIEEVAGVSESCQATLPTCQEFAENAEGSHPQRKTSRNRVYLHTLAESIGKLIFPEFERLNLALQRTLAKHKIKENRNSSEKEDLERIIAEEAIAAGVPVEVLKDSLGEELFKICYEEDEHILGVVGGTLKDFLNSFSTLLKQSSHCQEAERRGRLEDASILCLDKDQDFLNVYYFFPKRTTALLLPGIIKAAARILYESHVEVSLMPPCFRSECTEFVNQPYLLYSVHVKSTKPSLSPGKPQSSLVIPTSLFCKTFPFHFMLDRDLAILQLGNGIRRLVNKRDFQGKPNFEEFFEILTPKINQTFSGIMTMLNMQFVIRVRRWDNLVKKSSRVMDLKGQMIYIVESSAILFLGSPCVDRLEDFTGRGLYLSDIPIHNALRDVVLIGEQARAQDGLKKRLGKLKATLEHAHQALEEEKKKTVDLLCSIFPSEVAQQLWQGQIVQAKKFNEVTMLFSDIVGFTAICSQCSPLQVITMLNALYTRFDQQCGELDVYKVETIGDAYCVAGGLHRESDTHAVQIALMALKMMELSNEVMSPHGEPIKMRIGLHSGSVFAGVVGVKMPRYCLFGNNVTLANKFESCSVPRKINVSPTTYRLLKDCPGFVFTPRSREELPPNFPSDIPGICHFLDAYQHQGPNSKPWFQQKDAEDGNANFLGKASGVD
Kind of experiment: Effect on a recombinant guanylate cyclase reporter cell line. The format is cell-based. Conditions: for EC50: half maximal effective concentration; for MEC: minimum effective concentration. Here is the method:
B-1. Effect on a Recombinant Guanylate Cyclase Reporter Cell Line
The cellular activity of the compounds according to the invention was determined using a recombinant guanylate cyclase reporter cell line, as described in F. Wunder et al., Anal. Biochem. 339, 104-112 (2005).

Molecules are shown by their SMILES. Where a name gives a salt, the structure may show the parent alone.

For orientation: EC50 means the concentration at which the effect is half-maximal. For the molecule `O=C(O)c1cnn(C2CCCN(c3cc(Cl)ccc3-c3ccc(N4CCN(CC5CC5(F)F)CC4)cc3)C2)c1C(F)F` (single isomer, unassigned; diastereomer 3) [Example 30, 1-{1-[4-Chloro-4′-(4-{[2,2-difluorocyclopropyl]methyl}piperazin-1-yl)[biphenyl]-2-yl]piperidin-3-yl}-5-(difluoromethyl)-1H-pyrazole-4-carboxylic acid hydrochloride (Diastereomer 3)], the EC50 is 2 nM and the MEC is reported as 0.3 nM.

With `O=C(O)c1cnn(C2CCCN(c3cc(Cl)ccc3-c3ccc(N4CCN(CC5CC5F)CC4)cc3)C2)c1C(F)F` (single isomer, unassigned; diastereomer 3) [Example 33, 1-[1-[5-Chloro-2-[4-[4-[(trans-2-fluorocyclopropyl)methyl]piperazin-1-yl]phenyl]phenyl]-3-piperidyl]-5-(difluoromethyl)pyrazole-4-carboxylic acid hydrochloride (Diastereomer 3)], the EC50 is 4.1 nM and the MEC is 0.3 nM.

In the case of `O=C(O)c1cnn(C2CCCN(c3cc(Cl)ccc3-c3ccc(N4CCN(CC5CC5(F)F)CC4)cc3)C2)c1C(F)F` (single isomer, unassigned; diastereomer 4) [Example 31, 1-{1-[4-Chloro-4′-(4-{[2,2-difluorocyclopropyl]methyl}piperazin-1-yl)[biphenyl]-2-yl]piperidin-3-yl}-5-(difluoromethyl)-1H-pyrazole-4-carboxylic acid hydrochloride (Diastereomer 4)], the EC50 was 5.1 nM and the MEC came to 1.0 nM.

With `O=C(O)c1cnn(C2CCCN(c3cc(Cl)ccc3-c3ccc(N4CCN(CC5CC5F)CC4)cc3)C2)c1C(F)F` (single isomer, unassigned; diastereomer 4) [Example 34, 1-[1-[5-Chloro-2-[4-[4-[(trans-2-fluorocyclopropyl)methyl]piperazin-1-yl]phenyl]phenyl]-3-piperidyl]-5-(difluoromethyl)pyrazole-4-carboxylic acid hydrochloride (Diastereomer 4)], the EC50 is 3.4 nM and the MEC was determined as 0.3 nM.

Turning to `CN1CCN(c2ccc(-c3ccc(Cl)cc3N3CCCC(n4ncc(C(=O)O)c4C(F)F)C3)cc2)CC1` (single isomer, unassigned; enantiomer 1) [Example 1, 1-{1-[4-Chloro-4′-(4-methylpiperazin-1-yl)[biphenyl]-2-yl]piperidin-3-yl}-5-(difluoromethyl)-1H-pyrazole-4-carboxylic acid hydrochloride (Enantiomer 1)], the EC50 turned out to be 96.5 nM and the MEC is listed as 10.0 nM.

With `CCN1CCN(c2ccc(-c3ccc(Cl)cc3N3CCCC(n4ncc(C(=O)O)c4C(F)F)C3)cc2)CC1` (single isomer, unassigned; enantiomer 1) [Example 3, 1-{1-[4-Chloro-4′-(4-ethylpiperazin-1-yl)[biphenyl]-2-yl]piperidin-3-yl}-5-(difluoromethyl)-1H-pyrazole-4-carboxylic acid hydrochloride (Enantiomer 1)], the EC50 was found to be 24.6 nM and the MEC was 3.0 nM.

`O=C(O)c1cnn(C2CCCN(c3cc(Cl)ccc3-c3ccc(N4CCN(C5CC5)CC4)cc3)C2)c1C(F)F` (single isomer, unassigned; enantiomer 1) [Example 8, 1-{1-[4-Chloro-4′-(4-cyclopropylpiperazin-1-yl)[biphenyl]-2-yl]piperidin-3-yl}-5-(difluoromethyl)-1H-pyrazole-4-carboxylic acid hydrochloride (Enantiomer 1)]: the concentration for a half-maximal effect (EC50) was determined as 24.5 nM and the MEC is given as 3.0 nM.

For `O=C(O)c1cnn(C2CCCN(c3cc(Cl)ccc3-c3ccc(N4CCN(CC5CC5)CC4)cc3)C2)c1C(F)F` (single isomer, unassigned; enantiomer 1) [Example 10, 1-[1-{4-Chloro-4′-[4-(cyclopropylmethyl)piperazin-1-yl][1,1′-biphenyl]-2-yl}piperidin-3-yl]-5-(difluoromethyl)-1H-pyrazole-4-carboxylic acid hydrochloride (Enantiomer 1)], the EC50 came to 9.2 nM and the MEC is 0.8 nM.

With `CC(C)(C)CN1CCN(c2ccc(-c3ccc(Cl)cc3N3CCCC(n4ncc(C(=O)O)c4C(F)F)C3)cc2)CC1` (single isomer, unassigned; enantiomer 1) [Example 12, 1-[(1-{4-Chloro-4′-[4-(2,2-dimethylpropyl)piperazin-1-yl][biphenyl]-2-yl}piperidin-3-yl]-5-(difluoromethyl)-1H-pyrazole-4-carboxylic acid hydrochloride (Enantiomer 1)], the EC50 was found to be 61.5 nM and the MEC was 10.0 nM.

`O=C(O)c1cnn(C2CCCN(c3cc(Cl)ccc3-c3ccc(N4CCN(CC5CC(F)(F)C5)CC4)cc3)C2)c1C(F)F` (single isomer, unassigned; enantiomer 1) [Example 15, 1-[1-(4-Chloro-4′-{4-[(3,3-difluorocyclobutyl)methyl]piperazin-1-yl}[biphenyl]-2-yl)piperidin-3-yl]-5-(difluoromethyl)-1H-pyrazole-4-carboxylic acid hydrochloride (Enantiomer 1)]: the EC50 amounted to 6.7 nM and the MEC is on record as 0.6 nM.

On to `O=C(O)c1cnn(C2CCCN(c3cc(Cl)ccc3-c3ccc(N4CCN(CC(F)F)CC4)cc3)C2)c1C(F)F` (single isomer, unassigned; enantiomer 1) [Example 18, 1-[1-{4-Chloro-4′-[4-(2,2-difluoroethyl)piperazin-1-yl][biphenyl]-2-yl}piperidin-3-yl]-5-(difluoromethyl)-1H-pyrazole-4-carboxylic acid hydrochloride (Enantiomer 1)], for which the EC50 was less than 1 nM and the MEC came to 0.3 nM.

For the molecule `CC(F)(F)CN1CCN(c2ccc(-c3ccc(Cl)cc3N3CCCC(n4ncc(C(=O)O)c4C(F)F)C3)cc2)CC1` (single isomer, unassigned; enantiomer 1) [Example 24, 1-(1-{4-Chloro-4′-[4-(2,2-difluoropropyl)piperazin-1-yl][biphenyl]-2-yl}piperidin-3-yl)-5-(difluoromethyl)-1H-pyrazole-4-carboxylic acid hydrochloride (Enantiomer 1)], the concentration giving a half-maximal response (EC50) was found to be 1.8 nM and the MEC was 0.3 nM.

With `O=C(O)c1cnn(C2CCCN(c3cc(Cl)ccc3-c3ccc(N4CCN(C5COC5)CC4)cc3)C2)c1C(F)F` (single isomer, unassigned; enantiomer 1) [Example 42, 1-(1-{4-Chloro-4′-[4-(oxetan-3-yl)piperazin-1-yl][biphenyl]-2-yl}piperidin-3-yl)-5-(difluoromethyl)-1H-pyrazole-4-carboxylic acid hydrochloride (Enantiomer 1)], the EC50 was 71 nM and the MEC amounted to 30.0 nM.

Take `O=C(O)c1cnn(C2CCCN(c3cc(Cl)ccc3-c3ccc(N4CCCC4)cc3)C2)c1C(F)F` (single isomer, unassigned; enantiomer 1) [Example 44, 1-{1-[4-Chloro-4′-(pyrrolidin-1-yl)[biphenyl]-2-yl]piperidin-3-yl}-5-(difluoromethyl)-1H-pyrazole-4-carboxylic acid (Enantiomer 1)]: the EC50 worked out at 45 nM and the MEC came to 10.0 nM.

`CC(C)CN1CCN(c2ccc(-c3ccc(Cl)cc3N3CC(n4ncc(C(=O)O)c4C(F)F)CC(F)(F)C3)cc2)CC1` (single isomer, unassigned; enantiomer 1) [Example 54, 1-{1-[4-Chloro-4′-(4-isobutylpiperazin-1-yl)[biphenyl]-2-yl]-5,5-difluoropiperidin-3-yl}-5-(difluoromethyl)-1H-pyrazole-4-carboxylic acid hydrochloride (Enantiomer 1)]: the EC50 stood at 8.4 nM and the MEC worked out at 3.0 nM.
